Measurements as given in patent publication US20260256792A1, “TREATMENT OF CHRONIC SPONTANEOUS URTICARIA BY ADMINISTERING (R)-2-[3-[4-AMINO-3-(2-FLUORO-4-PHENOXY-PHENYL)PYRAZOLO[3,4-D]PYRIMIDIN-1-YL]PIPERIDINE-1-CARBONYL]-4-METHYL-4-[4-(OXETAN-3-YL)PIPERAZIN-1-YL]PENT-2-ENENITRILE” (priority 2023, published 2026).

System: moderate-to-severe chronic spontaneous urticaria (CSU)
Test: Phase 2 CSU study: urticaria activity score over 7 days (UAS7)
Assay type: in vivo, human
Set-up: key to UAS7 Median / UAS7 Change from baseline Median / UAS7 change from baseline, Q1 / UAS7 change from baseline, Q3 / UAS7 change from baseline, Max / UAS7 Change from baseline LS Mean (SE): UAS7 points; daily UAS score ranges 0–6 points/day, over 7 days
Details: ITT population
Excerpt: The study comprises a 12 week, randomized, double-blind, placebo-controlled, multi-center, dose-ranging efficacy and safety phase, followed by a 40 week open label extension (OLE) phase (see FIG. 1). The study consists of three phases and an optional OLE phase. […] Clinically, CSU is characterized by the spontaneous and recurrent appearance of pruritic hives. The proposed primary endpoints were the UAS7 at Week 12 in EU and EU reference countries and the ISS7 in the US. Regardless of where a participant was from, all assessments were the same. The UAS7 score is a composite score containing both the HSS7 and the ISS7. This allowed a global assessment of the two key components of urticaria: hives and itch. […] The UAS is a validated PRO measure. […] The daily UAS scores range from 0 to 6 point/day. […] Patients were to complete the UAS using the e-diary. […] The following secondary endpoints were to be analyzed using the same approach as for the primary endpoint: • Change from baseline in UAS7 at Week 4 • Change from baseline in UAS7 at Week 12 (for US and US reference countries) • Change from baseline in ISS7 at Week 12 (except US and US reference countries) • Change from baseline in HSS7 at Week 12 The following responder secondary endpoints were to be analyzed using the Cochran-Mantel-Haenszel test adjusted by region: • Proportion of participants with UAS7<6 at Week 12 • Proportion of participants with UAS7=0 at Week 12 Participants who received selected prohibited medications and/or rescue medications were to be considered as non-responders for time points after the medication usage. For other participants, all available data including those collected during the off-treatment period were to be used to determine the responder/non-responder status. Missing data were to be considered as non-responders.

CC(C)(C=C(C#N)C(=O)N1CCC[C@@H](n2nc(-c3ccc(Oc4ccccc4)cc3F)c3c(N)ncnc32)C1)N1CCN(C2COC2)CC1 [rilzabrutinib, (R)-2-[3-[4-amino-3-(2-fluoro-4-phenoxy-phenyl)pyrazolo[3,4-d]pyrimidin-1-yl]piperidine-1-carbonyl]-4-methyl-4-[4-(oxetan-3-yl)piperazin-1-yl]pent-2-enenitrile]
UAS7 Change difference for rilzabrutinib vs. placebo LS Mean (95% CI) (400 mg QPM, Week 1): −3.61 | UAS7 Change from baseline LS Mean (SE) (400 mg QPM, Week 1): −7.44 | UAS7 Post-baseline Mean (SD) (400 mg QPM, Week 1): 23.84 (8.66) | UAS7 % Change difference for rilzabrutinib vs. placebo LS Mean (95% CI) (400 mg QPM, Week 2): −6.32% | UAS7 % Change from baseline LS Mean (SE) (400 mg QPM, Week 2): −25.19% | UAS7 Change difference for rilzabrutinib vs. placebo LS Mean (95% CI) (400 mg QPM, Week 2): −1.80 | UAS7 Change from baseline LS Mean (SE) (400 mg QPM, Week 2): −8.14 | UAS7 Post-baseline Mean (SD) (400 mg QPM, Week 2): 23.40 (8.85) | UAS7 % Change difference for rilzabrutinib vs. placebo LS Mean (95% CI) (400 mg QPM, Week 4): −5.97% | UAS7 % Change from baseline LS Mean (SE) (400 mg QPM, Week 4): −29.23% | UAS7 Change difference for rilzabrutinib vs. placebo LS Mean (95% CI) (400 mg QPM, Week 4): −1.48 | UAS7 Change from baseline LS Mean (SE) (400 mg QPM, Week 4): −9.55 | UAS7 Post-baseline Mean (SD) (400 mg QPM, Week 4): 21.82 (8.73) | UAS7 % Change difference for rilzabrutinib vs. placebo LS Mean (95% CI) (400 mg QPM, Week 6): −7.24% | UAS7 % Change from baseline LS Mean (SE) (400 mg QPM, Week 6): −34.14% | UAS7 Change difference for rilzabrutinib vs. placebo LS Mean (95% CI) (400 mg QPM, Week 6): −1.88 | UAS7 Change from baseline LS Mean (SE) (400 mg QPM, Week 6): −11.02 | UAS7 Post-baseline Mean (SD) (400 mg QPM, Week 6): 20.12 (10.28) | UAS7 % Change difference for rilzabrutinib vs. placebo LS Mean (95% CI) (400 mg QPM, Week 7): −7.16% | UAS7 % Change from baseline LS Mean (SE) (400 mg QPM, Week 7): −34.50% | UAS7 Change difference for rilzabrutinib vs. placebo LS Mean (95% CI) (400 mg QPM, Week 7): −1.89 | UAS7 Change from baseline LS Mean (SE) (400 mg QPM, Week 7): −10.95 | UAS7 Post-baseline Mean (SD) (400 mg QPM, Week 7): 20.98 (9.91) | UAS7 % Change difference for rilzabrutinib vs. placebo LS Mean (95% CI) (400 mg QPM, Week 8): −3.38% | UAS7 % Change from baseline LS Mean (SE) (400 mg QPM, Week 8): −35.22% | UAS7 Change difference for rilzabrutinib vs. placebo LS Mean (95% CI) (400 mg QPM, Week 8): −0.53 | UAS7 Change from baseline LS Mean (SE) (400 mg QPM, Week 8): −10.88 | UAS7 Post-baseline Mean (SD) (400 mg QPM, Week 8): 21.01 (10.40) | UAS7 % Change difference for rilzabrutinib vs. placebo LS Mean (95% CI) (400 mg QPM, Week 9): −8.48% | UAS7 % Change from baseline LS Mean (SE) (400 mg QPM, Week 9): −36.53% | UAS7 Change difference for rilzabrutinib vs. placebo LS Mean (95% CI) (400 mg QPM, Week 9): −1.73 | UAS7 Change from baseline LS Mean (SE) (400 mg QPM, Week 9): −11.33 | UAS7 Post-baseline Mean (SD) (400 mg QPM, Week 9): 20.18 (10.10) | UAS7 % Change difference for rilzabrutinib vs. placebo LS Mean (95% CI) (400 mg QPM, Week 10): −3.82% | UAS7 % Change from baseline LS Mean (SE) (400 mg QPM, Week 10): −37.35% | UAS7 Change difference for rilzabrutinib vs. placebo LS Mean (95% CI) (400 mg QPM, Week 10): −0.76 | UAS7 Change from baseline LS Mean (SE) (400 mg QPM, Week 10): −11.66 | UAS7 Post-baseline Mean (SD) (400 mg QPM, Week 10): 20.15 (10.55) | UAS7 % Change difference for rilzabrutinib vs. placebo LS Mean (95% CI) (400 mg QPM, Week 11): −5.62% | UAS7 % Change from baseline LS Mean (SE) (400 mg QPM, Week 11): −36.39% | UAS7 Change difference for rilzabrutinib vs. placebo LS Mean (95% CI) (400 mg QPM, Week 11): −0.52 | UAS7 Change from baseline LS Mean (SE) (400 mg QPM, Week 11): −10.92 | UAS7 Post-baseline Mean (SD) (400 mg QPM, Week 11): 21.08 (11.00) | UAS7 % Change difference for rilzabrutinib vs. placebo LS Mean (95% CI) (400 mg QPM, Week 12): −2.09% | UAS7 % Change from baseline LS Mean (SE) (400 mg QPM, Week 12): −35.03% | UAS7 Change difference for rilzabrutinib vs. placebo LS Mean (95% CI) (400 mg QPM, Week 12): 0.97 | UAS7 Change from baseline LS Mean (SE) (400 mg QPM, Week 12): −10.22 | UAS7 Post-baseline Mean (SD) (400 mg QPM, Week 12): 21.80 (10.94) | UAS7 % Change difference for rilzabrutinib vs. placebo LS Mean (95% CI) (400 mg TID, Week 2): −29.83% | UAS7 % Change from baseline LS Mean (SE) (400 mg TID, Week 2): −48.69% | UAS7 Change difference for rilzabrutinib vs. placebo LS Mean (95% CI) (400 mg TID, Week 2): −8.72 | UAS7 Change from baseline LS Mean (SE) (400 mg TID, Week 2): −15.06 | UAS7 Post-baseline Mean (SD) (400 mg TID, Week 2): 14.58 (10.74) | UAS7 % Change difference for rilzabrutinib vs. placebo LS Mean (95% CI) (400 mg TID, Week 3): −28.32% | UAS7 % Change from baseline LS Mean (SE) (400 mg TID, Week 3): −49.95% | UAS7 Change difference for rilzabrutinib vs. placebo LS Mean (95% CI) (400 mg TID, Week 3): −7.56 | UAS7 Change from baseline LS Mean (SE) (400 mg TID, Week 3): −15.15 | UAS7 Post-baseline Mean (SD) (400 mg TID, Week 3): 14.42 (9.77) | UAS7 % Change difference for rilzabrutinib vs. placebo LS Mean (95% CI) (400 mg TID, Week 4): −25.68% | UAS7 % Change from baseline LS Mean (SE) (400 mg TID, Week 4): −48.94% | UAS7 Change difference for rilzabrutinib vs. placebo LS Mean (95% CI) (400 mg TID, Week 4): −6.71 | UAS7 Change from baseline LS Mean (SE) (400 mg TID, Week 4): −14.78 | UAS7 Post-baseline Mean (SD) (400 mg TID, Week 4): 13.93 (9.77) | UAS7 % Change difference for rilzabrutinib vs. placebo LS Mean (95% CI) (400 mg TID, Week 5): −22.21% | UAS7 % Change from baseline LS Mean (SE) (400 mg TID, Week 5): −54.01% | UAS7 Change difference for rilzabrutinib vs. placebo LS Mean (95% CI) (400 mg TID, Week 5): −6.47
